Reference: ChEMBL document CHEMBL4190324 (Eur J Med Chem, 2017)

Legend:
[1] = Hepatotoxicity against human HepG2 cells assessed as reduction in cell viability at 50 uM after 24 hrs by MTT assay; type: toxicity, cell-based; conditions: hepg2, 24 h
[2] = target: Acetylcholinesterase (Electrophorus electricus, UniProt O42275); assay: Inhibition of electric eel AChE using acetylthiocholine as substrate preincubated for 20 mins followed by substrate addition measured every 2 mins for 20 mins by Ellman's method
Acetylcholinesterase, sequence (O42275 whole entry): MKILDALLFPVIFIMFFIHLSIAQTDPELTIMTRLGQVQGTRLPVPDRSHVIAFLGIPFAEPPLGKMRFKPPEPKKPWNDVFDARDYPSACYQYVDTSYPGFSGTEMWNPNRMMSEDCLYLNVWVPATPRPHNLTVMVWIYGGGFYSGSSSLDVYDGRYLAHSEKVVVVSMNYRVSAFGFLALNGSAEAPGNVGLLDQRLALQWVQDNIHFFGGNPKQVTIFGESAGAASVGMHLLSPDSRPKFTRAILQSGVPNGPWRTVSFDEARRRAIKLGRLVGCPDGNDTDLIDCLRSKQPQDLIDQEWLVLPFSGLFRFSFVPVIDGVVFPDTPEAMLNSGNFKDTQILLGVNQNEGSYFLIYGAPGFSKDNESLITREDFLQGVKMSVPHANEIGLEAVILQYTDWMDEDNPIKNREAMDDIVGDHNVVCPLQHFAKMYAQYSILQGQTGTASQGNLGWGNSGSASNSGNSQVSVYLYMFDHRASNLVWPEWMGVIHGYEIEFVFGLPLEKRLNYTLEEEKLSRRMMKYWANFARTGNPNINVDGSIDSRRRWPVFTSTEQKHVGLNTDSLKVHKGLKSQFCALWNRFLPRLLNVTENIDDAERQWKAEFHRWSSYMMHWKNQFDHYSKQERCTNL

[3] = Cytotoxicity against HEK293 cells assessed as cell viability up to 100 uM after 24 hrs by MTT assay relative to control; type: cell-based; conditions: human, read-out: Activity
[4] = test system: HEK293; assay: Cytotoxicity against HEK293 cells at > 50 uM after 24 hrs by MTT assay; type: cell-based; conditions: human, hek293, 24 h
[5] = target: Cholinesterase (Equus caballus, UniProt P81908)
Cholinesterase, sequence (P81908 whole entry): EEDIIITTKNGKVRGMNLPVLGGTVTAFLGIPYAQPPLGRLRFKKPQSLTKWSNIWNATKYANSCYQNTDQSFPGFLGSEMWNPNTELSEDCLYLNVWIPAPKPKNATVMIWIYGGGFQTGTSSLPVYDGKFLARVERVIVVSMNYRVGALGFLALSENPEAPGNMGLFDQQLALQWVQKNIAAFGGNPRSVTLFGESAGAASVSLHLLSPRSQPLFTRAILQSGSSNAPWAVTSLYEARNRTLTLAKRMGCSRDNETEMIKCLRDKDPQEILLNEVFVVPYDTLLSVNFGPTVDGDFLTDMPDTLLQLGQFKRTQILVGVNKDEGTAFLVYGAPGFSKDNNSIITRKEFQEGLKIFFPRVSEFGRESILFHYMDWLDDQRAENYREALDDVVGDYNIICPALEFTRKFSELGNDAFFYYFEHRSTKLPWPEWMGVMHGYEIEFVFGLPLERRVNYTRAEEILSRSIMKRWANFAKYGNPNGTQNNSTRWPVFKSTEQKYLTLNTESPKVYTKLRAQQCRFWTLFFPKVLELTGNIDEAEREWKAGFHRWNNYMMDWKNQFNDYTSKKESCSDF
Description: Inhibition of equine serum BChE using butyrylthiocholine as substrate preincubated for 20 mins followed by substrate addition measured every 2 mins for 20 mins by Ellman's method

[6] = Hepatotoxicity against human HepG2 cells assessed as reduction in cell viability at 300 uM after 24 hrs by MTT assay; type: toxicity, cell-based; conditions: hepg2, 24 h
[7] = Hepatotoxicity against human HepG2 cells assessed as reduction in cell viability at 10 to 300 uM after 72 hrs by MTT assay; type: toxicity, cell-based; conditions: hepg2, 72 h
[8] = test system: HEK293; assay: Cytotoxicity against HEK293 cells at 0.1 to 300 uM after 24 hrs by MTT assay; type: cell-based; conditions: human, hek293, 24 h

| SMILES | Activity [1] | IC50 [2] | viability at 24 h [3] | Activity [4] | IC50 [5] | Activity [6] | Activity [7] | Activity [8] |
| --- | --- | --- | --- | --- | --- | --- | --- | --- |
| CNC(=O)C1CCc2nc3cc(Br)ccc3c(N)c2C1 (configuration not stated) | Toxic | 28.6 nM | > 80% | – | – | – | – | – |
| Nc1c2c(nc3cc(Br)ccc13)CCC(C(=O)NCCCc1ccccc1)C2 (configuration not stated) | Toxic | 7.14 nM | – | Toxic | 5110 nM | – | – | – |
| Nc1c2c(nc3cc(-c4cncnc4)ccc13)CCC(C(=O)NCCCc1ccccc1)C2 (configuration not stated) | – | 40.8 nM | – | Toxic | 18000 nM | – | – | – |
| Nc1c2c(nc3ccccc13)CCC(C(=O)NCCc1ccccc1)C2 (configuration not stated) | Toxic | 16.8 nM | – | Toxic | 4050 nM | – | – | – |
| Nc1c2c(nc3cc(Br)ccc13)CCC(C(=O)NCCc1ccccc1)C2 (configuration not stated) | Toxic | 24.1 nM | – | Toxic | 7170 nM | – | – | – |
| NNC(=O)C1CCc2nc3ccccc3c(N)c2C1 (configuration not stated) | – | 13 nM | – | – | – | Non-Toxic | Non-Toxic | Non-Toxic |
| Nc1c2c(nc3cc(Br)ccc13)CCC(C(=O)NCc1ccccc1)C2 (configuration not stated) | – | 33.7 nM | > 80% | Toxic | 10200 nM | – | – | – |
| Cn1cc(-c2ccc3c(N)c4c(nc3c2)CCC(C(=O)NCc2ccccc2)C4)cn1 (configuration not stated) | – | 191 nM | – | – | 2260 nM | – | – | – |
| Nc1c2c(nc3ccccc13)CCC(C(=O)NCCCc1ccccc1)C2 (configuration not stated) | Toxic | 5.17 nM | – | Toxic | 3680 nM | – | – | – |
| Nc1c2c(nc3ccccc13)CCC(C(=O)NCc1ccccc1)C2 (configuration not stated) | – | 37.2 nM | – | – | 10800 nM | – | – | – |
| Cn1cc(-c2ccc3c(N)c4c(nc3c2)CCC(C(=O)NCCCc2ccccc2)C4)cn1 (configuration not stated) | – | 57.6 nM | – | – | 2770 nM | – | – | – |
| Cn1nccc1NC(=O)C1CCc2nc3cc(Br)ccc3c(N)c2C1 (configuration not stated) | – | 17.7 nM | > 80% | – | 20900 nM | – | – | – |
| Cn1cc(-c2ccc3c(N)c4c(nc3c2)CCC(C(=O)NCCc2ccccc2)C4)cn1 (configuration not stated) | – | 189 nM | – | Toxic | 10600 nM | – | – | – |
